Where two headings read alike, the source gives them in different places.
Columns and labels:
[1] = Concentrations of precipitation; assay type: physicochemical
Text: Table 1 α-Glucosidase inhibitory activity of compounds 8a–t. | column: Concentrations of precipitation (µM)

[2] = molecular target: Saccharomyces cerevisiae α-glucosidase enzyme (EC. 3. 2. 1. 20) (Saccharomyces cerevisiae, UniProt P38158); assay: In vitro α-glucosidase inhibitory activity; assay type: biochemical
Text: In order to conduct the enzyme assay, the Saccharomyces cerevisiae α-glucosidase enzyme (EC. 3. 2. 1. 20) have been used.

α-glucosidase [3] = molecular target: α-glucosidase; design: method as in PMID 36782003, PMID 35982225, PMID 36928433, PMID 37188744, doi:10.1039/C5MD00280J; settings: cited from earlier work
α-glucosidase [4] = molecular target: α-glucosidase (Saccharomyces cerevisiae, UniProt P38158); assay: Enzyme kinetic study (Lineweaver–Burk plot); assay type: biochemical
Text: A Lineweaver–Burk plot was generated to recognize the type of inhibition and the Michaelis–Menten constant (Km) value was defined from the plot between the reciprocal of the substrate concentration (1/[S]) and reciprocal of enzyme rate (1/V) over different concentrations of inhibitor.

Sequence of Saccharomyces cerevisiae α-glucosidase enzyme (EC. 3. 2. 1. 20) (P38158 whole entry): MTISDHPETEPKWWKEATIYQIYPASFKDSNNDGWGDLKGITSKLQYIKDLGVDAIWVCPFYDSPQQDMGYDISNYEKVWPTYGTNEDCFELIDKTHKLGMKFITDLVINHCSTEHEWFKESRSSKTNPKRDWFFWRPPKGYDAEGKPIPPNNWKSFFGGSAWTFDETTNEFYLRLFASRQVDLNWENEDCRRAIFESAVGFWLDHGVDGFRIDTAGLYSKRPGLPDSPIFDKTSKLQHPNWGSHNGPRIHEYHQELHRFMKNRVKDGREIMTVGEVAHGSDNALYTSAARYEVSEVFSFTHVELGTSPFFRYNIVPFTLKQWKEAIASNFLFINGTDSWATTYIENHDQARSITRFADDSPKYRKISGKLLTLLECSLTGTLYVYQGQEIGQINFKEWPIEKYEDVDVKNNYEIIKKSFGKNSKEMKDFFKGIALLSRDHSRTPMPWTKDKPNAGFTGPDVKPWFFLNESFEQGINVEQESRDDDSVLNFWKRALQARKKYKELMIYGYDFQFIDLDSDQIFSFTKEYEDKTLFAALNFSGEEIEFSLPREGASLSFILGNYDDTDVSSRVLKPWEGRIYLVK
Sequence of α-glucosidase (Saccharomyces cerevisiae, UniProt P38158) (P38158 whole entry): as above

Compound | Concentrations of precipitation [1] [µM] | IC50 [2] [µM] | melting point [°C] | other results
2-((3-(benzo[d]thiazol-2-yl)quinolin-2-yl)thio)-N-(4-methyl-2-nitrophenyl)acetamide [Compound 8n] | > 90 | – | – | IC50 ([2]; α-glucosidase, mean ± SD of three independent determinations of triplicate samples, read-out: IC50): 65.9 ± 1 µM
O=C(N/N=C/c1cc(O)c(O)cc1O)c1ccc(-c2nnc(-c3ccc4ncccc4c3)o2)cc1 [A] | – | – | – | IC50 (α-glucosidase [3]; Fig. 2, study of compound A with its acarbose standard): 2.6 ± 0.01 µM
O=C(CSc1nc2ccccc2cc1-c1nc2ccccc2[nH]1)Nc1cccc(Cl)c1 [C] | – | – | – | IC50 (α-glucosidase [3]; Fig. 2, study of compound C with its acarbose standard): 3.2 ± 0.3 µM
O=C(CSc1nc2ccccc2cc1-c1nc2ccccc2s1)Nc1ccccc1 [Compound 8a, 2-((3-(benzo[d]thiazol-2-yl)quinolin-2-yl)thio)-N-phenylacetamide] | > 90 | 299 ± 0.1 | – | –
Cc1ccccc1NC(=O)CSc1nc2ccccc2cc1-c1nc2ccccc2s1 [Compound 8b, 2-((3-(benzo[d]thiazol-2-yl)quinolin-2-yl)thio)-N-(o-tolyl)acetamide] | > 90 | 79.9 ± 1.2 | 211 to 213 | Potency compared to para-isomer (8c) ([2]; α-glucosidase, more potent than 8c): fivefold
Cc1ccc(NC(=O)CSc2nc3ccccc3cc2-c2nc3ccccc3s2)cc1 [Compound 8c, 2-((3-(benzo[d]thiazol-2-yl)quinolin-2-yl)thio)-N-(p-tolyl)acetamide] | > 90 | 384.3 ± 0.3 | – | –
CCc1ccc(NC(=O)CSc2nc3ccccc3cc2-c2nc3ccccc3s2)cc1 [Compound 8d, 2-((3-(benzo[d]thiazol-2-yl)quinolin-2-yl)thio)-N-(4-ethylphenyl)acetamide] | > 90 | 194.4 ± 0.8 | – | –
Cc1cccc(NC(=O)CSc2nc3ccccc3cc2-c2nc3ccccc3s2)c1C [Compound 8e, 2-((3-(benzo[d]thiazol-2-yl)quinolin-2-yl)thio)-N-(2,3-dimethylphenyl)acetamide] | > 90 | 130.4 ± 0.5 | – | –
Cc1cccc(C)c1NC(=O)CSc1nc2ccccc2cc1-c1nc2ccccc2s1 [Compound 8f, 2-((3-(benzo[d]thiazol-2-yl)quinolin-2-yl)thio)-N-(2,6-dimethylphenyl)acetamide] | > 90 | 231.6 ± 0.7 | – | –
O=C(CSc1nc2ccccc2cc1-c1nc2ccccc2s1)Nc1ccccc1F [Compound 8g, 2-((3-(benzo[d]thiazol-2-yl)quinolin-2-yl)thio)-N-(2-fluorophenyl)acetamide] | > 90 | 198.5 ± 0.9 | 201 to 203 | –
O=C(CSc1nc2ccccc2cc1-c1nc2ccccc2s1)Nc1ccc(F)cc1 [Compound 8h, 2-((3-(benzo[d]thiazol-2-yl)quinolin-2-yl)thio)-N-(4-fluorophenyl)acetamide] | > 90 | 38.2 ± 0.3 | – | Type of inhibition (α-glucosidase [4]; Lineweaver–Burk plot): non-competitive inhibition; Ki (α-glucosidase [4]; read-out: Ki (inhibition constant)): 38.2 µM
O=C(CSc1nc2ccccc2cc1-c1nc2ccccc2s1)Nc1ccccc1Cl [Compound 8i, 2-((3-(benzo[d]thiazol-2-yl)quinolin-2-yl)thio)-N-(2-chlorophenyl)acetamide] | > 90 | 118 ± 1.4 | 221 to 223 | –
O=C(CSc1nc2ccccc2cc1-c1nc2ccccc2s1)Nc1cccc(Cl)c1 [Compound 8j, 2-((3-(benzo[d]thiazol-2-yl)quinolin-2-yl)thio)-N-(3-chlorophenyl)acetamide] | > 90 | 111.7 ± 1.1 | – | –
O=C(CSc1nc2ccccc2cc1-c1nc2ccccc2s1)Nc1ccc(Cl)cc1 [Compound 8k, 2-((3-(benzo[d]thiazol-2-yl)quinolin-2-yl)thio)-N-(4-chlorophenyl)acetamide] | > 90 | 145 ± 1.5 | – | –
O=C(CSc1nc2ccccc2cc1-c1nc2ccccc2s1)Nc1ccc(Br)cc1 [Compound 8l, 2-((3-(benzo[d]thiazol-2-yl)quinolin-2-yl)thio)-N-(4-bromophenyl)acetamide] | > 90 | 182.7 ± 1 | – | –
O=C(CSc1nc2ccccc2cc1-c1nc2ccccc2s1)Nc1ccc([N+](=O)[O-])cc1 [Compound 8m, 2-((3-(benzo[d]thiazol-2-yl)quinolin-2-yl)thio)-N-(4-nitrophenyl)acetamide] | > 90 | 198.9 ± 1.5 | 209 to 211 | –
O=C(CSc1nc2ccccc2cc1-c1nc2ccccc2s1)Nc1ncc([N+](=O)[O-])s1 [Compound 8o, 2-((3-(benzo[d]thiazol-2-yl)quinolin-2-yl)thio)-N-(5-nitrothiazol-2-yl)acetamide] | > 90 | 47.2 ± 0.6 | 199 to 201 | –
O=C(CSc1nc2ccccc2cc1-c1nc2ccccc2s1)Nc1cccc2ccccc12 [Compound 8p, 2-((3-(benzo[d]thiazol-2-yl)quinolin-2-yl)thio)-N-(naphthalen-1-yl)acetamide] | > 90 | 139.8 ± 1 | 198 to 200 | –
O=C(CSc1nc2ccccc2cc1-c1nc2ccccc2s1)NCc1ccccc1 [Compound 8q, 2-((3-(benzo[d]thiazol-2-yl)quinolin-2-yl)thio)-N-benzylacetamide] | > 90 | 255.6 ± 0.3 | – | –
Cc1ccc(CNC(=O)CSc2nc3ccccc3cc2-c2nc3ccccc3s2)cc1 [Compound 8r, 2-((3-(benzo[d]thiazol-2-yl)quinolin-2-yl)thio)-N-(4-methylbenzyl)acetamide] | > 90 | 161.4 ± 0.4 | 182 to 184 | –
O=C(CSc1nc2ccccc2cc1-c1nc2ccccc2s1)NCc1ccc(F)cc1 [Compound 8s, 2-((3-(benzo[d]thiazol-2-yl)quinolin-2-yl)thio)-N-(4-fluorobenzyl)acetamide] | > 90 | 130.1 ± 0.7 | 213 to 215 | Less activity compared to phenyl one ([2]; α-glucosidase, para-fluoro benzyl less active than para-fluoro phenyl): about threefold
O=C(CSc1nc2ccccc2cc1-c1nc2ccccc2s1)NCCc1ccccc1 [Compound 8t, 2-((3-(benzo[d]thiazol-2-yl)quinolin-2-yl)thio)-N-phenethylacetamide] | > 90 | 222.7 ± 0.9 | 225 to 227 | –
Cc1cccc(C)c1NC(=O)CSc1nc2ccccc2cc1/C=N/NC(=O)c1ccccc1 [D] | – | – | – | IC50 (α-glucosidase [3]; Fig. 2, study of compound D with its acarbose standard): 14 ± 0.6 µM
Oc1ccc(-c2nnc(-c3ccc(-c4nc5ccccc5s4)cc3)o2)cc1O [E] | – | – | – | IC50 (α-glucosidase [3]; Fig. 2, study of compound E with its acarbose standard): 0.5 ± 0.01 µM
O=C(N/N=C/c1ccc(Cl)cc1)c1ccc(-c2nc3ccccc3s2)cc1 [F] | – | – | – | IC50 (α-glucosidase [3]; Fig. 2, study of compound F with its acarbose standard): 5.31 ± 0.03 µM

Reference: publication PMC10766639, “Synthesis, in vitro potency of inhibition, enzyme kinetics and in silico studies of quinoline-based α-glucosidase inhibitors” (Scientific Reports, 2024)
